Test results as given in patent US20040219622A1, “Phosphine-containing formulations for chemiluminescent luciferase assays” (priority 2001, published 2004).

Experiments:
Format in all cases: biochemical
Renilla luciferase = target: T1, Renilla luciferase (Renilla reniformis, UniProt P27652); experiment: Renilla luciferase assay with or without TCEP (Example 6); conditions: 33.3 μl of 0.5 M TCEP added to 466.7 μl coelenterazine assay mixture
T1 construct: purchased Chemicon 4400
T1 sequence (P27652 1-311): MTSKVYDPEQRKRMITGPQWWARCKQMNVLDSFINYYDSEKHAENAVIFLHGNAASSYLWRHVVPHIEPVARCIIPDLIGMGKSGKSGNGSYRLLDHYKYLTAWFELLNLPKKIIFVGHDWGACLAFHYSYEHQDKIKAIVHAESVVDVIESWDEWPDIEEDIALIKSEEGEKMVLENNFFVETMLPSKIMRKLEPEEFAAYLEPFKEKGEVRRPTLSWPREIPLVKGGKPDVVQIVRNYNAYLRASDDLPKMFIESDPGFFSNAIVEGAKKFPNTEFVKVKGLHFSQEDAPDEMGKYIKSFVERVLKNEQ
Experimental: In order to ascertain whether or not TCEP would interfere with a Renilla assay, an experiment was conducted utilizing a Renilla assay mixture, with or without TCEP supplementation. A Renilla assay mixture was prepared by combining 480 μl of 0.1 M Tris, 10 mM MgCl2, 1 mM EDTA, pH 8.0, with 437.7 μl of 0.1 M Tris, pH 8.0, and 16.7 μl of a coelenterazine stock solution (59 μM coelenterazine in denatured ethanol prepared from Molecular Probes Catalog number C-6777). This solution was split into 2 aliquots of 466.7 μl, and one aliquot received 33.3 μl of 0.5 M TCEP and the other aliquot received 33.3 μl 0.1 M Tris, pH 8.0.
Renilla luciferase purchased from Chemicon (Catalog number 4400) was diluted with 1 ml phosphate-buffered saline (10 mM sodium phosphate, 150 mM NaCl, pH 7.2) and stored frozen at −80° C. in 10 μl aliquots, each aliquot containing 100 ng enzyme. An aliquot was removed and diluted with 0.1 M Tris, pH 8.0, for a concentration series of 166, 55, 18.5, and 0 pg/10 μl. 10 μl of each enzyme concentration were pipetted in duplicate to the wells of a white opaque 96-well microplate, and 100 μl of either of the TCEP containing solution or the solution without TCEP was pipetted into the wells to initiate the reaction. The plate was immediately placed into an Orion Luminometer, and light output from the wells was measured with sequential plate reading cycles.

firefly luciferase [1] = target: T2, firefly luciferase (Photinus pyralis, UniProt P08659); experiment: TCEP-mediated firefly luciferase reaction with DTT series (Example 5); conditions: 33.5 mM TCEP; for signal decrease from first reading cycle to 11 minutes 34 seconds later: no added DTT
Experimental: A common solution was prepared by combining stock solutions of Tris/Mg buffer, D-luciferin, TCEP, and ATP. This solution was prepared by combining 12 ml of 0.1 M Tris, 10 mM MgCl2, pH 8.0, 187.5 μl of 10 mM D-luciferin in 0.1 M Tris, pH 8.0, […] 0.5 M TCEP, and 30 μl of an ATP stock solution (50 mM ATP in 0.1 M Tris, pH 8.0) and 1.02 ml of 0.1 M Tris, pH 8.0. A 150 μl aliquot of this solution was added to 100 μl of 50 mM DTT stock solution (50 mM DTT in 0.1 M Tris, pH 8.0) for a final DTT concentration of 20 mM, and another 1.35 ml aliquot of the solution received 0.9 ml 0.1 M Tris, pH 8.0. The 20 mM DTT reaction solution was further diluted with the second aliquot to give a final DTT concentration series of […], and 0 mM DTT. In this series of reaction mixtures with varying concentrations of DTT, the final luciferin, magnesium, and TCEP concentrations were 75.5 μM luciferin, 4.8 mM magnesium, and 33.5 mM TCEP and 238 μM ATP. Other reaction mixtures with varying DTT concentrations were also prepared in like fashion, but with a final ATP concentration held constant at either 59.5, 29.75 or 14.875 μM, which was achieved by further dilution of the ATP solution with 0.1 M Tris, pH 8.
Firefly luciferase was diluted from a stock solution (2 μl of 14.7 mg/ml) with 0.1 M Tris, pH 8.0, containing 2 mg/ml bovine serum albumin. 10 μl aliquots containing 181 pg of enzyme were aliquoted into the wells of an opaque white 96-well microplate, after which 100 μl of the reaction mixtures with varying DTT concentrations were added. The plate was immediately placed into an Orion Luminometer, and light output from the wells was measured with sequential plate reading cycles, each cycle allowing the wells of the plate to be read with a time interval of approximately 2.25 minutes.
FIGS. 10 and 11 illustrate the results of this experiment. FIG. 10 illustrates the results obtained where the final ATP concentration of the reaction mixture was 238 μM, and FIG. 11 illustrates the results obtained where the final ATP concentration of the reaction mixture was 30 μM. Both graphs relate the observed RLU at each reading cycle expressed as a relative percentage of the signal obtained with the well receiving no DTT supplementation at the first reading cycle, with this signal being assigned 100%.

firefly luciferase [2] = target: T2, firefly luciferase; experiment: Firefly luciferase reaction with TCEP concentration series (Example 1); conditions: for light output as % of the original signal: 96 mM TCEP
Experimental: A common firefly luciferase reaction mix was prepared by combining stock solutions of Tris/Mg buffer, D-luciferin, and ATP. A 900 μl aliquot of this mix consisted of 720 μl of 0.1 M Tris, 10 mM MgCl2, pH 8.0, 150 μl of 10 mM D-luciferin in 0.1 M Tris, pH 8.0, and 30 μl of 50 mM ATP in 0.1 M Tris, pH 8.0. A series of buffered TCEP preparations were prepared from a neutral pH, 0.5 M TCEP solution (Pierce Chemical Company Product No. 77720) by dilutions with 0.1 M Tris, pH 8.0, as necessary for a TCEP concentration series of 300, 150, 75, 37.5, 18.75, 9.38, 4.69, and 0 mM TCEP. 450 μl of each TCEP concentration were then added separately to 900 μl aliquots of the previously prepared mixture, followed by a final addition of 50 μl of 0.1 M Tris, pH 8.0, to each solution for a final volume of 1.4 ml. The final TCEP concentrations were, therefore, approximately 96, 48, 24, 12, 6, 3, 1.5, and 0 mM and the final Mg, luciferin, and ATP concentrations were 5.14, 1.07, and 1.07 mM, respectively.
Firefly luciferase was diluted from a stock solution (2 μl of 14.7 mg/ml) with 0.1 M Tris, pH 8.0, containing 2 mg/ml bovine serum albumin. 10 μl aliquots containing 181 pg of enzyme were aliquoted into the wells of an opaque white 96-well microplate, after which 125 μl of the reaction mixtures with varying TCEP concentrations were added. The plate was immediately placed into an Orion Luminometer (Berthold Detection Systems), and light output from the plate wells was measured for 15 sequential plate reading cycles, each cycle allowing the wells of the plate to be read with a time interval of approximately 2 minutes.

firefly luciferase [3] = target: T2, firefly luciferase; experiment: Firefly luciferase reaction with TCEP series plus 5 mM DTT (Example 2)
Experimental: In this experiment, final TCEP concentration was varied from 0-96 mM in the reaction mixture, with the reaction mixture also containing a final concentration of DTT of 5 mM. The conditions for this experiment were identical to that shown in Example 1, but with substitution of the final addition of 50 μl of 0.1 M Tris, pH 8.0, to each solution with a final addition of 50 μl of 50 mM DTT stock solution prepared in 0.1 M Tris, pH 8.0. This experiment was also conducted simultaneously and in the same microwell plate as the experiment of Example 1.

firefly luciferase [4] = target: T2, firefly luciferase; experiment: Firefly luciferase reaction with additives TCEP, CoA, DTT alone or combined (Example 3); conditions: CoA 0.5 mM, DTT 5 mM, light output then rapidly decreased
Experimental: A common firefly luciferase reaction mix was prepared by combining stock solutions of Tris/Mg buffer, D-luciferin, and ATP. A 600 μl aliquot of this mix consisted of 480 μl of 0.1 M Tris, 10 mM MgCl2, pH 8.0, 85 μl of 10 mM D-luciferin in 0.1 M Tris, pH 8.0, and 17 μl of 50 mM ATP (1889485) in 0.1 M Tris, pH 8.0. Separate aliquots of the reaction mixture were then supplemented with various combinations of additives selected from a 0.5 M TCEP solution, a stock solution of CoA (5 mM CoA in 0.1 M Tris, pH 8.0), or a stock solution of DTT (50 mM DTT in 0.1 M Tris, pH 8.0) and then brought to a final volume of 1 ml with 0.1 M Tris, pH 8.0. In such fashion, the following solutions were obtained: a solution with no additives (None), TCEP (T), TCEP plus CoA (TC), TCEP plus DTT (TD), TCEP plus CoA plus DTT (TCD), CoA (C), CoA plus DTT (CD), and DTT (D or DTT). Where used, the final concentrations of TCEP, CoA, and DTT were 50, 0.5, and 5 mM, respectively. […]
Firefly luciferase was diluted from a stock solution (2 μl of 14.7 mg/ml) with 0.1 M Tris, pH 8.0, containing 2 mg/ml bovine serum albumin. […] The plate was immediately placed into an Orion Luminometer, and light output from the plate wells was measured with sequential plate reading cycles over a one hour time frame, each cycle allowing the wells of the plate to be read with a time interval of approximately 140 seconds.

firefly luciferase [5] = target: T2, firefly luciferase; experiment: ATP assay with TCEP in firefly luciferin-luciferase reaction (Example 4); conditions: 5 mM DTT; 33.3 mM TCEP; 0-500 μM ATP
Experimental: A common solution was prepared by combining stock solutions of Tris/Mg buffer, D-luciferin, and TCEP. A 2.25 ml aliquot of this solution contained 1.2 ml of 0.1 M Tris, 10 mM MgCl2, pH 8.0, 18.75 μl of 10 mM D-luciferin in 0.1 M Tris, pH 8.0, 165 μl of 0.5 M TCEP, with the remaining volume being 0.1 M Tris, pH 8.0. 0.5 ml of this mixture was removed and to it was added 11 μl of an ATP stock solution (50 mM ATP in 0.1 M Tris, pH 8.0) and 39 μl of 0.1 M Tris, pH 8.0; the remaining 1.75 ml of mixture received 175 μl of 0.1 M Tris, pH 8.0. The ATP-containing aliquot was then serially diluted with the non-ATP-containing mixture to yield a final ATP concentration series of 500, 250, 125, 62.5, 31.25, 15.625, and 0 μM. The non-ATP-containing mixture served as the control for zero ATP concentration. In this series of reaction mixtures with varying concentrations of ATP, the final luciferin, magnesium, and TCEP concentrations were 75.8 μM luciferin, 4.8 mM magnesium, and 33.3 mM TCEP. […]
Firefly luciferase was diluted from a stock solution (2 μl of 14.7 mg/ml) with 0.1 M Tris, pH 8.0 containing 2 mg/ml bovine serum albumin. […] The plate was immediately placed into an Orion Luminometer and light output from the wells was measured with sequential plate reading cycles, each cycle allowing the wells of the plate to be read with a time interval of approximately 2.25 minutes. […]

T2 sequence (P08659 whole entry): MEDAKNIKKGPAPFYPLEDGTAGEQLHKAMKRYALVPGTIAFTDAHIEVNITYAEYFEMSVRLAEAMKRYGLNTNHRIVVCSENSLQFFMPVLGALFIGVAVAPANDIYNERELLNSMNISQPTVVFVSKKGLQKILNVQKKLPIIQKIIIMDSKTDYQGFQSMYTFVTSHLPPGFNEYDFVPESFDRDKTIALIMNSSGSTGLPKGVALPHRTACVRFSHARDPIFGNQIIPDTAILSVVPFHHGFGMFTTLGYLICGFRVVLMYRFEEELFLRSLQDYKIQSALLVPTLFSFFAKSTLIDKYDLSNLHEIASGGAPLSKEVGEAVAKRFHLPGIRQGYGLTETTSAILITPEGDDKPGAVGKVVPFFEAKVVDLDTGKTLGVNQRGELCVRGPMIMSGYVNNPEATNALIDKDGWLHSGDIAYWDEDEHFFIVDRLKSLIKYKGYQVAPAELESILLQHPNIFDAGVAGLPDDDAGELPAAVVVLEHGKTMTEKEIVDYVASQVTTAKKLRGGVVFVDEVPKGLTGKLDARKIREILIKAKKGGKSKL

Compound	reduction of background (no added enzyme) compared to absence of TCEP (Renilla luciferase) [%]	signal decrease from first reading cycle to 11 minutes 34 seconds later (firefly luciferase [1]; 30 μM ATP)	signal decrease from first reading cycle to 11 minutes 34 seconds later (firefly luciferase [1]; 250 μM ATP)	light output as % of the original signal (firefly luciferase [2]; fourth reading cycle) [%]	light output as % of the original signal (firefly luciferase [2]; last reading cycle) [%]	initially observed light output compared to the control reaction (no TCEP) (firefly luciferase [2]; TCEP 1.5, 3 and 6 mM)	originally observed signal retained at the last reading cycle (firefly luciferase [2]; TCEP 1.5-96 mM, 15th reading cycle, about 2 min per cycle, 181 pg enzyme, control lost >90%) [%]	RLU at the fifteenth reading cycle compared to control with DTT but without TCEP (firefly luciferase [3]; 1.5-24 mM TCEP + 5 mM DTT)	initial RLU compared to the control reaction (DTT without TCEP) (firefly luciferase [3]; 1.5 or 3 mM TCEP, 5 mM DTT)	retention of originally observed light output at last reading cycle compared to control (firefly luciferase [3]; all TCEP concentrations (1.5-96 mM), 5 mM DTT)	initial light output compared to the no addition control (firefly luciferase [4])	increase of initial RLU during the first cycle vs no DTT (firefly luciferase [1]; 10 mM DTT, 30 μM ATP)	increase of initial RLU during the first cycle vs no DTT (firefly luciferase [1]; 20 mM DTT, 238 μM ATP)	less light output after 11.5 minutes compared to the initial reading (firefly luciferase [1]; 20 mM DTT, 250 μM ATP) [%]	RLUs on inclusion of DTT in the TCEP reaction mixture (firefly luciferase [5])
O=C(O)CCP(CCC(=O)O)CCC(=O)O [TCEP, Tris(2-carboxyethyl) phosphine]	50	about 6%	about 6%	49	32	significantly higher	32 to 78	greater RLU	greater	greater retention	–	–	–	–	–
CC(C)(COP(=O)(O)OP(=O)(O)OC[C@H]1O[C@@H](n2cnc3c(N)ncnc32)[C@H](O)[C@@H]1OP(=O)(O)O)[C@@H](O)C(=O)NCCC(=O)NCCS [CoA, Coenzyme A]	–	–	–	–	–	–	–	–	–	–	increased	–	–	–	–
O[C@H](CS)[C@H](O)CS (racemic) [DTT, dithiothreitol]	–	–	–	–	–	–	–	–	–	–	increased	about 8%	about 34%	8.5	elevated
